Entries after “also recorded” stand apart in the source; their conditions may differ.
Experiments:
[1] = test system: recombinant beetle luciferases; conditions: only the D-form; Viviani et al., Biochemistry 2014; cited from earlier work
[2] = Thermal stability of luciferin stock solutions at 60° C. by RP-HPLC; conditions: stock solution pH=6.0, 7.0 mM; for Thermal stability (decomposition in solution): detergents, ULTRA-GLO luciferase 0.1 mg/mL
[3] = test system: UltraGlo luciferase; test: RLU of 5,5-disubstituted luciferin analogs normalized to racemic luciferins (Table 1); format: biochemical; conditions: normalized to 1 mM racemic luciferins under identical conditions
Protocol: Further tests were conducted at various substrate concentrations in the presence of sub-saturating D-Luciferin as a means to compare the binding affinity of the substrates. Solutions of 0.005 mg/ml Click Beetle-Green luciferase (CBG) or UltraGlo luciferase were prepared in Bright-Glo™ assay buffer (Promega E263A) with 3 mM ATP. A 2 mM solution of each substrate was then prepared in water containing D-Luciferin (sub-saturating). Each substrate+D-Luciferin was two-fold serially diluted in luciferin free water. A sample of 50 μL of each substrate dilution was combined with 50 μL of the enzyme solution. Samples were incubated at room temperature for one minute, and luminescence was measured on a GLOMAX® Multi+ plate luminometer. […] (FIG. 5A-F). RLU values for certain representative compounds (normalized to racemic luciferins under identical conditions) are provided in Table 1 above. For certain representatative compounds, substrate titration tests were performed using procedures as described herein without comparison to luciferins, therefore providing RLU values not normalized to those of luciferins.
(§1) To determine if luciferin analogs with substitutions at the 5,5 position could be substrates for UltraGlo™ luciferase, tests were performed with analogs containing various di-substitutions of alkyl groups and closed ring structures in luminescence assays. A solution of 0.005 mg/ml UltraGlo™ luciferase (Promega Corp) prepared in 1×TBS+1% Prionex was combined with 0.5 mM ATP in Bright-Glo™ assay buffer (Promega E263A). All substrates were diluted separately in DMSO to 20 mM. After a 30-minute incubation at room temperature, diluted substrate was added to 1 mM final concentration in the reaction and mixed by pipetting. Reactions were further incubated at room temperature for 1 minute, and luminescence measured on a GLOMAX® Multi+ plate luminometer.

[4] = test system: UltraGlo™ luciferase; test: Luminescence assay of 5,5-substituted analogs as substrates for UltraGlo™ luciferase (FIG. 7); format: biochemical; conditions: 1 mM substrate, 0.005 mg/ml enzyme, 0.5 mM ATP, 1 minute at room temperature
Protocol: as §1

[5] = test system: ULTRA-GLO™ luciferase; test: Inhibition of luciferase activity by dehydroluciferins; format: biochemical; conditions: titrated from 0.25 mM in 0.25 mM racemic luciferin, 0.1 mM ATP, 1 minute
Protocol: Inhibition of luciferase activity by dehydroluciferins: ULTRA-GLO™ luciferase (Promega, 0.1 mg/mL)+0.1% PRIONEX® in detection reagent buffer was prepared. The solution was divided into 2 portions with 0.25 mM Racemic H-Luciferin added to one portion and 0.25 mM racemic NH2 luciferin to the other portion. H-dehydroluciferin (0.25 mM) was added to an aliquot of the racemic H-Luciferin solution, and NH2-dehydroluciferin (0.25 mM) was added to an aliquot of the racemic NH2 luciferin solution. 2× serial dilutions of each of the dehydroluciferin samples were prepared using the racemic solutions as a diluent (500 μL of dehydroluciferin solution added to 500 μL of ULTRA-GLO™+racemic luciferin). 50 μL of each titration series was then added to […] 0.1 mM ATP. The samples were incubated for 1 minute, and the luminescence was measured on GLOMAX®-Multi+ plate luminometer (n=6).

[6] = test system: firefly or click beetle luciferases; conditions: Branchini et al., J. Am. Chem. Soc. 2002; cited from earlier work

| SMILES | RLU% (RLU normalized to the one generated by 1 mM racemic luciferins under identical conditions) [3] [%] | other results |
| --- | --- | --- |
| CC1(C)SC(c2nc3ccc(N)cc3s2)=NC1C(=O)O (stereo not drawn) [III-b, 2-(6-aminobenzo[d]thiazol-2-yl)-5,5-dimethyl-4,5-dihydrothiazole-4-carboxylic acid] | – | Light production [1]: produce light; Thermal stability (decomposition in solution) [2]: virtually no decomposition; also recorded: more thermally stable than the unsubstituted luciferin |
| CN1CCC2(CC1)SC(c1nc3ccc(O)cc3s1)=NC2C(=O)O (stereo not drawn) [CS0420, 2-(6-hydroxybenzo[d]thiazol-2-yl)-8-methyl-1-thia-3,8-diazaspiro[4.5]dec-2-ene-4-carboxylic acid] | 0.20 | – |
| O=C(O)C1N=C(c2nc3ccc(O)cc3s2)SC1(Cc1ccccc1)Cc1ccccc1 (stereo not drawn) [CS0396, 5,5-dibenzyl-2-(6-hydroxybenzo[d]thiazol-2-yl)-4,5-dihydrothiazole-4-carboxylic acid] | 1.0 | Luminescence as substrate [4]: measurable luminescence values |
| Nc1ccc2nc(-c3nc(C(=O)O)cs3)sc2c1 [NH2-dehydroluciferin] | – | Inhibition of luciferase activity [5]: potent inhibitors |
| O=C(O)[C@H]1CSC(c2nc3ccc(O)cc3s2)=N1 [unsubstituted luciferin] | – | Thermal stability (decomposition in solution) [2]: significant decomposition; Major degradation product ([2]; with or without ULTRA-GLO luciferase): dehydroluciferin |
| O=C(O)C1N=C(c2nc3ccc(O)cc3s2)SC12CCOCC2 (stereo not drawn) [CS0439, 2-(6-hydroxybenzo[d]thiazol-2-yl)-8-oxa-1-thia-3-azaspiro[4.5]dec-2-ene-4-carboxylic acid] | 0.09 | – |
| O=C(O)C1N=C(c2nc3ccc(O)cc3s2)SC12CCCCCC2 (stereo not drawn) [CS0397, 2-(6-hydroxybenzo[d]thiazol-2-yl)-1-thia-3-azaspiro[4.6]undec-2-ene-4-carboxylic acid] | 0.13 | – |
| CC1(C)SC(c2nc3ccc(O)cc3s2)=NC1C(=O)O (stereo not drawn) [III-a, 2-(6-hydroxybenzo[d]thiazol-2-yl)-5,5-dimethyl-4,5-dihydrothiazole-4-carboxylic acid] | – | Light production via luciferase mediated processes [6]: incapable of producing light; Thermal stability (decomposition in solution) [2]: virtually no decomposition; also recorded: more thermally stable than the unsubstituted luciferin |
| O=C(O)C1N=C(c2nc3cc(F)c(O)cc3s2)SC12CCCCC2 (stereo not drawn) [CS0392, 2-(5-fluoro-6-hydroxybenzo[d]thiazol-2-yl)-1-thia-3-azaspiro[4.5]dec-2-ene-4-carboxylic acid] | 0.13 | Luminescence as substrate [4]: measurable luminescence values |
| CCC1(CC)SC(c2nc3cc(F)c(O)cc3s2)=NC1C(=O)O (stereo not drawn) [CS0388, 5,5-diethyl-2-(5-fluoro-6-hydroxybenzo[d]thiazol-2-yl)-4,5-dihydrothiazole-4-carboxylic acid] | 0.64 | Luminescence as substrate [4]: measurable luminescence values |
| O=C(O)C1N=C(c2nc3ccc(O)cc3s2)SC12CC2 (stereo not drawn) [CS0333, 5-(6-hydroxybenzo[d]thiazol-2-yl)-4-thia-6-azaspiro[2.4]hept-5-ene-7-carboxylic acid] | 0.27 | – |
| O=C(O)C1N=C(c2nc3ccc(O)cc3s2)SC12CCC2 (stereo not drawn) [CS0329, 6-(6-hydroxybenzo[d]thiazol-2-yl)-5-thia-7-azaspiro[3.4]oct-6-ene-8-carboxylic acid] | 0.29 | – |
| O=C(O)C1N=C(c2nc3ccc(O)cc3s2)SC12CCCCC2 (stereo not drawn) [CS0325, 2-(6-hydroxybenzo[d]thiazol-2-yl)-1-thia-3-azaspiro[4.5]dec-2-ene-4-carboxylic acid] | 0.22 | – |
| O=C(O)c1csc(-c2nc3ccc(O)cc3s2)n1 [H-dehydroluciferin] | – | Inhibition of luciferase activity [5]: potent inhibitors |
| CCC1(CC)SC(c2nc3ccc(O)cc3s2)=NC1C(=O)O (stereo not drawn) [CS0330, 5,5-diethyl-2-(6-hydroxybenzo[d]thiazol-2-yl)-4,5-dihydrothiazole-4-carboxylic acid] | 0.60 | – |
| CC1CCC2(CC1)SC(c1nc3ccc(O)cc3s1)=NC2C(=O)O (stereo not drawn) [CS0404, 2-(6-hydroxybenzo[d]thiazol-2-yl)-8-methyl-1-thia-3-azaspiro[4.5]dec-2-ene-4-carboxylic acid] | 0.31 | – |
| CCCC1(CCC)SC(c2nc3ccc(O)cc3s2)=NC1C(=O)O (stereo not drawn) [CS0427, 2-(6-hydroxybenzo[d]thiazol-2-yl)-5,5-dipropyl-4,5-dihydrothiazole-4-carboxylic acid] | 0.16 | – |
| O=C(O)C1N=C(c2nc3ccc(O)cc3s2)SC12CCCC2 (stereo not drawn) [CS0326, 2-(6-hydroxybenzo[d]thiazol-2-yl)-1-thia-3-azaspiro[4.4]non-2-ene-4-carboxylic acid] | 0.43 | – |

— patent US10913972B2, “5,5-disubstituted luciferins and their use in luciferase-based assays” (Promega Corporation, priority 2016, dated 2021)
